Experiments:
[1] = test system: BT474 (human breast carcinoma); test: In vitro tumor cell proliferation assay (Cell Titer-Glo luminescent cell viability), BT474 cells; format: cell-based; conditions: BT-474, 72 hours drug exposure, 10% Fetal Bovine Serum, ATP luminescence readout, read-out: IC50 (50% inhibition of cell proliferation)
In short: (§1)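 ATP luminescence (CellTiter-Glo) measured proliferation after 72 h compound exposure at 37 °C, giving IC50 values. Serial dilutions spanning 64 pM–100 μM in 0.1% DMSO were applied one day after plating 2.5×10^3 cells/well in RPMI plus 10% fetal bovine serum.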

[2] = test system: A431cells (human epidermoid carcinoma); test: In vitro tumor cell proliferation assay (Cell Titer-Glo luminescent cell viability), A431 cells; format: cell-based; conditions: A-431, 72 h, 72 hours drug exposure, 10% Fetal Bovine Serum, ATP luminescence readout, read-out: IC50 (50% inhibition of cell proliferation)
In short: as §1

Compound | IC50 [1] [µM] | IC50 [2] [µM]
COCCNCCC1CCc2c(sc3ncnc(Nc4ccc(OCc5cccc(F)c5)c(Cl)c4)c23)C1 (stereo not shown) [Example 142, N-{3-chloro-4-[(3-fluorobenzyl)oxy]phenyl}-7-{2-[(2-methoxyethyl)amino]ethyl}-5,6,7,8-tetrahydro[1]benzothieno[2,3-d]pyrimidin-4-amine] | < 5 | < 5
CCOC(=O)CC1CCc2c(sc3ncnc(Nc4ccc(OCc5ccc(F)cc5)c(Cl)c4)c23)C1 (stereo not shown) [Example 143, ethyl [4-({3-chloro-4-[(4-fluorobenzyl)oxy]phenyl}amino)-5,6,7,8-tetrahydro[1]benzothieno[2,3-d]pyrimidin-7-yl]acetate] | < 5 | < 50
O=C(CC1CCc2c(sc3ncnc(Nc4ccc(OCc5ccc(F)cc5)c(Cl)c4)c23)C1)N1CCOCC1 (stereo not shown) [Example 144, N-{3-chloro-4-[(4-fluorobenzyl)oxy]phenyl}-7-(2-morpholin-4-yl-2-oxoethyl)-5,6,7,8-tetrahydro[1]benzothieno[2,3-d]pyrimidin-4-amine] | < 50 | < 50
COCCNC(=O)CC1CCc2c(sc3ncnc(Nc4ccc(OCc5ccc(F)cc5)c(Cl)c4)c23)C1 (stereo not shown) [Example 146, 2-[4-({3-chloro-4-[(4-fluorobenzyl)oxy]phenyl}amino)-5,6,7,8-tetrahydro[1]benzothieno[2,3-d]pyrimidin-7-yl]-N-(2-methoxyethyl)acetamide] | < 50 | < 50
CS(=O)(=O)CCNC(=O)CC1CCc2c(sc3ncnc(Nc4ccc(OCc5ccc(F)cc5)c(Cl)c4)c23)C1 (stereo not shown) [Example 147, 2-[4-({3-chloro-4-[(4-fluorobenzyl)oxy]phenyl}amino)-5,6,7,8-tetrahydro[1]benzothieno[2,3-d]pyrimidin-7-yl]-N-[2-(methylsulfonyl)ethyl]acetamide] | < 50 | < 50
CN(C)[C@H]1CCN(C(=O)CC2CCc3c(sc4ncnc(Nc5ccc(OCc6ccc(F)cc6)c(Cl)c5)c34)C2)C1 (stereo partly drawn) [Example 148, N-{3-chloro-4-[(4-fluorobenzyl)oxy]phenyl}-7-{2-[(3S)-3-(dimethylamino)pyrrolidin-1-yl]-2-oxoethyl}-5,6,7,8-tetrahydro[1]benzothieno[2,3-d]pyrimidin-4-amine] | < 5 | < 5
O=C(CC1CCc2c(sc3ncnc(Nc4ccc(OCc5ccc(F)cc5)c(Cl)c4)c23)C1)N1CCCC1 (stereo not shown) [Example 149, N-{3-chloro-4-[(4-fluorobenzyl)oxy]phenyl}-7-(2-oxo-2-pyrrolidin-1-ylethyl)-5,6,7,8-tetrahydro[1]benzothieno[2,3-d]pyrimidin-4-amine] | < 50 | < 50
CN1CCN(C(=O)CC2CCc3c(sc4ncnc(Nc5ccc(OCc6ccc(F)cc6)c(Cl)c5)c34)C2)CC1 (stereo not shown) [Example 150, N-{3-chloro-4-[(4-fluorobenzyl)oxy]phenyl}-7-[2-(4-methylpiperazin-1-yl)-2-oxoethyl]-5,6,7,8-tetrahydro[1]benzothieno[2,3-d]pyrimidin-4-amine] | < 5 | < 5
COCCN(C)C(=O)CC1CCc2c(sc3ncnc(Nc4ccc(OCc5ccc(F)cc5)c(Cl)c4)c23)C1 (stereo not shown) [Example 151, 2-[4-({3-chloro-4-[(4-fluorobenzyl)oxy]phenyl}amino)-5,6,7,8-tetrahydro[1]benzothieno[2,3-d]pyrimidin-7-yl]-N-(2-methoxyethyl)-N-methylacetamide] | < 50 | < 50
COCCN(C)CCC1CCc2c(sc3ncnc(Nc4ccc(OCc5ccc(F)cc5)c(Cl)c4)c23)C1 (stereo not shown) [Example 152, N-{3-chloro-4-[(4-fluorobenzyl)oxy]phenyl}-7-{2-[(2-methoxyethyl)(methyl)amino]ethyl}-5,6,7,8-tetrahydro[1]benzothieno[2,3-d]pyrimidin-4-amine] | < 5 | < 5
Fc1ccc(COc2ccc(Nc3ncnc4sc5c(c34)CCC(CCN3CCCC3)C5)cc2Cl)cc1 (stereo not shown) [Example 153, N-{3-chloro-4-[(4-fluorobenzyl)oxy]phenyl}-7-(2-pyrrolidin-1-ylethyl)-5,6,7,8-tetrahydro[1]benzothieno[2,3-d]pyrimidin-4-amine] | < 5 | < 5

Source: patent US7238701B2, “Substituted tetrahydrobenzothienopyrimidinamine compounds useful for treating hyper-proliferative disorders” (Bayer Pharmaceuticals Corporation, priority 2003, dated 2007)
